Legend:
P-gp (MDR1) = experiment: MDCK-MDR1 permeability assay; type: in vitro ADME; settings: dog
MDCK-MDR1 cell line = experiment: MDCK-MDR1 permeability assay; type: in vitro ADME; settings: @ 5 μM, apical to basolateral, with P-gp inhibitor elacridar (2 μM)
physchem = settings: thermodynamic from solid
[1] = In vivo oral (p.o.) dosing, plasma and colon concentrations (Protocols 1 and 2); design: species or system female C57BL/6 mice; settings: mice, 25 mg/kg p.o.
Experimental: These protocols are described below under the heading In vivo Studies. Three non-fasted female C57BL/6 mice were orally administered test compound at a dose of 25 mg/kg p.o. as a solution in 20% hydroxypropyl-beta-cyclodextrin (HPβCD) at a dose volume of 5 mL/kg. Blood samples were collected at 0.5, 2, and 4 h post dose via retro-orbital bleed or venipuncture of the dorsal metatarsal vein. Blood samples were collected into tubes containing anticoagulant (Heparin-Na) and placed on wet ice. […] Colon samples were collected at 4 h post dose. […] The colon was further washed by putting it in 5 mL of saline and shaken for 5 seconds. The colon sample was then patted dry, weighed, and homogenized as 1 part tissue (g) to 4 parts HPLC grade water (mL). Concentrations of the compound in plasma and colon homogenate were determined using a qualified liquid chromatography-triple quadrupole mass spectrometry (LC-MS/MS) method. […] Three non-fasted female C57BL/6 mice were orally administered test compound at a dose of 25 mg/kg p.o. as a solution in 20% HPβCD at a dose volume of 5 mL/kg. Blood samples were collected at 0.5, 2, and 4 h post dose via retro-orbital bleed or dorsal metatarsal vein. Blood samples were collected into tubes containing anticoagulant (Heparin-Na) and placed on wet ice. […] Colon samples were collected at 4 h post dose. […] The colon was further washed by putting it in 5 mL of saline and shaken for 5 seconds. The colon sample was then patted dry, weighed, and homogenized as 1 part tissue (g) to 4 parts HPLC grade water (mL). Concentrations of the compound in plasma and colon homogenate were determined using a qualified liquid chromatography-triple quadrupole mass spectrometry (LC-MS/MS) method.

JAK1-JH1JH2 = JAK1-JH1JH2 (Homo sapiens (Human), UniProt P23458); experiment: Enzymatic inhibition assay (HTMS); type: biochemical
JAK1-JH1JH2, sequence (P23458 574-1154): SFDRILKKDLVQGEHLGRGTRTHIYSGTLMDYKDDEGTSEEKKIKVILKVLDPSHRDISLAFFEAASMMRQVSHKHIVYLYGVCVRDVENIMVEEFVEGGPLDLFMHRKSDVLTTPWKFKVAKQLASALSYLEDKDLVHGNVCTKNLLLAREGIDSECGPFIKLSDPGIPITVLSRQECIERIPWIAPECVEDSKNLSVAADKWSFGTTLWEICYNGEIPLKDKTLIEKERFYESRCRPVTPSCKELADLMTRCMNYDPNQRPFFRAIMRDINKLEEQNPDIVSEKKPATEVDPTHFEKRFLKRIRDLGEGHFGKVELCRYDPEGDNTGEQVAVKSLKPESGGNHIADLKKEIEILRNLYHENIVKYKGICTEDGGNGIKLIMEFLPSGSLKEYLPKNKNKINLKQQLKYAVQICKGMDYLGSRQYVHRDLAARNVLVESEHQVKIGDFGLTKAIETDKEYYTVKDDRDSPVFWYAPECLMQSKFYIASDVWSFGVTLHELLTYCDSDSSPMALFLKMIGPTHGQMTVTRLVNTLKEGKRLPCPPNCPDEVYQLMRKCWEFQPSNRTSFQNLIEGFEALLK
Description: (§1) JAK1-JH1JH2 (574-1154 with a His-GST Tag and a C-terminal tev (ENLYFQ-G) cleavage site), JAK3-JH1JH2 (512-1124 with a GST Tag and a C-terminal tev (ENLYFQ-G) cleavage site), and Tyk2-JH1JH2 (8H_tev_580-1182-C936A-C1142A with a C-terminal tev (ENLYFQ-G) cleavage site) were purified internally. […] LC/MS grade water and acetonitrile (ACN), were purchased from HoneyWell, Burdick & Jackson (Muskegon, Mich., USA). Dimethylsulfoxide 99.8% (DMSO) and trifluoroacetic acid 99.5% (TFA) were purchased from EMD Chemical (Gibbstown, N.J., USA). Adenosine triphosphate (ATP), 4-morpholinepropanesulfonic acid (MOPS), magnesium chloride (MgCl2), ethylenediaminetetraacetic acid (EDTA), dithiothreitol (DTT), formic acid>95% (FA) and Tween-20 were purchased from Sigma (St Louis, Mo., USA). 384-well polypropylene plates, Cat#781280 were purchased from Greiner (Monroe, N.C.), RapidFire™ cartridge A C4 Column (Agilent Technologies, Santa Clara, Calif.).
(§2) The HTMS experiments were performed in positive ionization mode on a RapidFire 300 instrument (Agilent Technologies, Santa Clara, Calif.), coupled with an ABSiex QTrap 4000 system with an Electrospray Ionization source (RF-MS) (Concord, ON, Canada). […] The entire system was operated using the RapidFire software interfaced with Analyst software for the mass spectrometer.
(§3) 11-point dosing series were made for each compound by serially diluting 1:3 or 1:4 in DMSO, with point 12 being a DMSO control. From the serial dilution plates, sample was transferred to a 384 wells assay plate (#781280, Greiner, Monroe, N.C.) using Labcyte Echo (Sunnyvale, Calif.), or Biosero ATS (San Diego, Calif.). The compounds were tested in duplicate. Column 12 was used for positive controls, and column 24 contained negative controls with no enzyme added. A compound from our internal collection, with inhibitory activity for JAK isoforms, was used as a reference compound. The final concentration of DMSO was ≤0.25% in a 20 μL reaction. The enzyme reaction was initiated by the addition of 10 μL of enzyme and ATP mixture to 10 μL of substrate solution prepared in reaction buffer (50 mM MOPS pH 7.5, 10 mM MgCl2, 1 mM EDTA, 2 mM DTT, 0.002% Tween-20). The Tyk2 enzyme was pre-incubated with 2 mM ATP for 30 min prior to the reaction initiation. Immediately after the addition of the enzyme to the reaction mixture, the plate was centrifuged at 1000 rpm for 1 minute and incubated at 25° C. for 45 minutes for JAK3 and 90 minutes for JAK1, JAK2 and Tyk2. The reaction was quenched by the addition of 20 μL of 0.5% TFA containing 0.15 μM of internal standard peptide using Multidrop Combi reagent dispenser (Thermo Scientific, Waltham, Mass.). […] After the quench, the assay plate was centrifuged at 3000 rpm for 3 minutes and sealed with pierceable aluminum foil (Cat#06644-001, Agilent) using a PlateLoc (Agilent Technologies, Santa Clara, Calif.). The plates then were transferred on to the RapidFire for the MS analysis. Compound inhibition was assessed by a decrease of the phosphorylated product levels in sample wells compared to the non-inhibited enzyme reaction.
(§4) The sample analysis on the RapidFire was performed using a mobile phase A1 consisting of Water/TFA/FA (100:0.01:0.1, v/v/v), a mobile phase B1 consisting of ACN/Water/TFA/FA (80:20:0.01:0.1, v/v/v). […] The samples were aspirated directly from the 384-well assay plate and delivered onto RF-MS microscale solid-phase C4 extraction cartridge (Type A). The undesired component such as salt, cofactor, detergent and large protein were washed out and the retained analytes (substrate, product and IS) were coeluted directly onto the AB Siex Qtrap 4000 system.

JAK2-JH1JH2 = JAK2-JH1JH2 (Homo sapiens (Human), UniProt O60674); experiment: Enzymatic inhibition assay (HTMS); type: biochemical; settings: read-out: JAK2_I_JH1JH2 IC50
Description: as §1, §2, §3, §4

JAK3-JH1JH2 = JAK3-JH1JH2 (Homo sapiens (Human), UniProt P52333); experiment: Enzymatic inhibition assay (HTMS); type: biochemical; settings: 150 μM ATP; read-out: JAK3_I_JH1JH2 IC50
Description: as §1, §2, §3, §4

Tyk2-JH1JH2 = Tyk2-JH1JH2 (Homo sapiens (Human), UniProt P29597, C1142A/C936A); experiment: Enzymatic inhibition assay (HTMS); type: biochemical; settings: read-out: Tyk2_I_JH1JH2 IC50
Tyk2-JH1JH2, sequence (P29597 580-1182 C936A/C1142A): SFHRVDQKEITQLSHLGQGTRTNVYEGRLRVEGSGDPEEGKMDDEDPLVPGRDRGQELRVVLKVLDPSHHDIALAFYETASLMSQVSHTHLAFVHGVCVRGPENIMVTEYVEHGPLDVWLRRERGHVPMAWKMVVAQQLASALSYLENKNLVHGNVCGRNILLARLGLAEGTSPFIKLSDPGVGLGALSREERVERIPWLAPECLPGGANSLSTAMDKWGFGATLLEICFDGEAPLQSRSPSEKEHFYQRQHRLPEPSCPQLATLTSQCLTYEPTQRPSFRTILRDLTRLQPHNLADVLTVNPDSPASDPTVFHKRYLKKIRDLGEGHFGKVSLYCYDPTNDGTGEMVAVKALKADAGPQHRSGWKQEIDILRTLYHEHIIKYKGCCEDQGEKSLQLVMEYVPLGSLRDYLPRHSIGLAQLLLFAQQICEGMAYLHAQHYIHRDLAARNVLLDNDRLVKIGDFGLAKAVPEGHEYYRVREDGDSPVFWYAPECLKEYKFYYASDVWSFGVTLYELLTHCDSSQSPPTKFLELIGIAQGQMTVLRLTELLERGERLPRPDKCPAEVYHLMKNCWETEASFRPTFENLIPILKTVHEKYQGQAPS
Description: as §1, §2, §3, §4

[2] = Polymorph screening, physical stability of crystalline embodiments of compound Ex. 1; type: physicochemical; settings: for physical stability of solid form: ambient conditions; for physical stability of solid form after AAC: 2 days at 40° C./70% RH, HT-XRPD; for physical stability of solid form in climate chamber: four days, HR-XRPD
Experimental: Long term slurry experiments were performed by suspending compound embodiment 1s in twenty neat solvents and stirred at room temperature for two weeks and at 50° C. for one week. Upon completion of the equilibration time, the residual solids were separated from the mother liquors. The solids were dried under ambient conditions and dried under vacuum (5 mBar) before being analyzed by HT-XRPD. Subsequently, the solids were exposed to accelerated aging conditions (40° C./70% relative humidity) for two days and again analyzed by HT-XRPD.
Embodiment 1s converted to hydrated embodiment 10 when it was exposed to 100% RH at 25° C. […] This behavior is attributable to an unequally strong binding of all the hydration/solvation molecules. In this case, embodiment 10 would have a less strongly bound second water molecule that would be lost under ambient conditions. More precisely, the physical stability of embodiment 1s was investigated in climate chambers by exposing a 20 mg sample of such embodiment to 40° C. and 70% relative humidity for four days, and another 20 mg sample of the same embodiment was exposed also for four days to 25° C. and 100% relative humidity. After four days, the various solid samples were analyzed by HR-XRPD, the crystal cell parameters were determined and the diffractograms were indexed. From bottom to top, the first diffractogram in FIG. 6 corresponds to embodiment 1s as starting material, and the second corresponds to the same form after a 4-day exposure to 40° C. and 70% relative humidity, noted as “1s 70 RH” in the same figure. […] Indexing for such form was not possible due to the small amount in which it was present. The third diffractogram corresponds to embodiment 1s after a 4-day exposure to 25° C. and 100% relative humidity, noted as “10” in the same figure. […] Upon dehydration, both embodiments 1s and 10 re-crystallized to the anhydrous form with a melting point of 148° C.
The mother liquors of the solvent equilibration experiments performed at 50° C. were filtered at 50° C. to remove any particulate matter. The suspensions at 50° C. were filtered using 0.2 μm PTFE filters, and the solutions were placed at 5° C. and aged for 72 hours. When solids had precipitated during aging these solids were separated from the liquid, dried under ambient conditions and under vacuum, and analyzed by HT-XRPD. The remaining mother liquors were allowed to slowly evaporate and the remaining solids were analyzed by HT-XRPD. The samples in which no precipitation occurred were placed under vacuum and the dried solids were analyzed by HT-XRPD. All the solids were then exposed to AAC (2 days at 40° C./70% RH) and re-analyzed by HT-XRPD.
The cooling/evaporative crystallization experiments at μL scale were performed in a 96-well plate, using 12 neat solvents and 12 solvent mixtures and applying four temperature profiles. In each well approximately 4 mg of embodiment 1s was solid dosed. Subsequently, the crystallization solvents (80 μL) and solvent mixtures were added to reach a concentration of 50 mg/mL, and the plate, with each well individually sealed, to subsequently undergo one of the four temperature profiles. Upon completion of the temperature profile the solvents were allowed to evaporate at low ambient pressure (24 hours) and the remaining solids were analyzed by HT-XRPD before and after exposure to AAC for 2 days (40° C./70% RH).
The cooling crystallization experiments with hot filtration were performed from supersaturated solutions of compound Ex. 1 prepared at 50° C. in different solvent mixtures. The hot filtrated solutions underwent a 48-hour cooling profile. The vials in which solids had precipitated after the temperature profile were centrifuged and the solids were separated from the liquid and analyzed by HT-XRPD (after drying under vacuum). If no solids had precipitated the solutions were evaporated under vacuum and the solids analyzed by HT-XRPD. […]

## C[C@@H](O)c1nc2cnc3[nH]ccc3c2n1[C@H]1CC[C@H](CC#N)CC1 [C, reference compound]
P-gp (MDR1); MDCK-MDR1, pH 7.4, @ 5 μM, apical to basolateral, without elacridar, read-out: MDCK-MDR1 Papp(A-B)
  Papp A→B at 60 min, 5 μM: […]
P-gp (MDR1); MDCK-MDR1, pH 7.4, @ 5 μM, basolateral to apical
  Papp B→A at 60 min, 5 μM: […]
MDCK-MDR1 cell line
  MDCK-MDR1 P^eapp(A-B): […]
physchem; pH 6.5, fassif
  solubility: > 400 µM
physchem; simulated gastric fluid
  solubility: > 400 µM
[1]; Time = 0.5 h
  Plasma Concentration After p.o. Dosing, Mean: […]
[1]; Time = 2 h
  Plasma Concentration After p.o. Dosing, Mean: […]
[1]; Time = 4 h
  Colon Concentration After p.o. Dosing, Mean: […]
  Plasma Concentration After p.o. Dosing, Mean: […]
JAK1-JH1JH2
  IC50: < 0.2 nM
JAK2-JH1JH2
  IC50: […]
JAK3-JH1JH2
  IC50: […]
Tyk2-JH1JH2
  IC50: 0.2 nM

## CC(C)(O)CNC(=O)Cc1nc2cnc3[nH]ccc3c2n1[C@H]1CC[C@H](CC#N)CC1 [Embodiment 4]
[2]
  physical stability of solid form: did not appear to be physically stable

## CC(C)(O)CNC(=O)Cc1nc2cnc3[nH]ccc3c2n1[C@H]1CC[C@H](CC#N)CC1 [Embodiment 5]
[2]
  physical stability of solid form after AAC: physically unstable

## CC(C)(O)CNC(=O)Cc1nc2cnc3[nH]ccc3c2n1[C@H]1CC[C@H](CC#N)CC1 [Embodiment 6]
[2]
  physical stability of solid form after AAC: stable solid form

## CC(C)(O)CNC(=O)Cc1nc2cnc3[nH]ccc3c2n1[C@H]1CC[C@H](CC#N)CC1 [Embodiment 7]
[2]
  physical stability of solid form after AAC: physically stable

## CC(C)(O)CNC(=O)Cc1nc2cnc3[nH]ccc3c2n1[C@H]1CC[C@H](CC#N)CC1 [embodiment 1s]
[2]; 25° C. and 100% relative humidity
  physical stability of solid form in climate chamber: conversion of embodiment 1s into embodiment 10
[2]; 40° C. and 70% relative humidity
  physical stability of solid form in climate chamber: initial embodiment 1s had been recovered

## CC(C)(O)CNC(=O)Cc1nc2cnc3[nH]ccc3c2n1[C@H]1CC[C@H](CC#N)CC1 [embodiment 2]
[2]
  physical stability of solid form after AAC: converted to embodiment 3e

## CC(C)(O)CNC(=O)Cc1nc2cnc3[nH]ccc3c2n1[C@H]1CC[C@H](CC#N)CC1 [embodiment 10]
[2]
  physical stability of solid form: physically not stable
